Columns and labels:
[1] = tested on: mice; experiment: Oral dose giving maximal analgesia; assay type: in vivo
[2] = tested on: Male CD-1 mice; experiment: Assessment of CNS side effects in mice (Straub tail, muscle rigidity, pinna reflex)
Excerpt: The objective of this study was to provide an approximation of the side effect profile of various oligomeric conjugates for comparison to the parent compounds by measuring various gross behavioral and physiological signs following administration of compound.
Additional evaluations included muscle rigidity and pinna reflex.
Male CD-1 mice from Charles River Laboratories, Raleigh, N.C., weighing from 16-18 grams were maintained on a regular light/dark cycle (lights on 0600-1800) with ad libitum food and water for 1 week before commencement of testing. N=2 per treatment condition, i.e., separate mice for each dose of each test article, injection was performed via a 25-gauge ⅝-inch needle on a 1-mL tuberculin syringe for the s.c. route and a 22-gauge stainless steel mouse feeding tube for the p.o. route (Becton, Dickinson & Co., Franklin Lakes, N.J.). Each treatment condition was divided about evenly between two observers. […] Test article was administered (s.c. or p.o., and the mouse was placed immediately in the observation chamber). One-half, 1, 2, and 3 hours later, the animal was observed undisturbed for gross signs such as locomotor ataxia, tremor, hyperactivity, hypoactivity, convulsions, hindlimb splay, and Straub tail, and then removed and assessed for muscle tone (normal, rigid, flaccid), pinna reflex (presence or absence), righting reflex (intact or lost), and placing (whether or not the forepaws are extended when the mouse is placed near a surface).
Each of the tables show the number of animals responding at each dose, where N=2. […] A bolded value indicates the lowest dose at which a response was detected.

[3] = tested on: squirrel monkeys; experiment: Monkey self-administration model of addictive potential
[4] = biological target: T1, human mu opioid receptor (Homo sapiens, UniProt P35372); experiment: biochemical; assay type: binding; conditions: CHO-K1 membranes, [3H]DAMGO 6 nM; read-out: Ki, Mu opioid receptor
T1 construct: expressed in transfected cells; host or cells: CHO cells
T1 sequence (P35372 whole entry): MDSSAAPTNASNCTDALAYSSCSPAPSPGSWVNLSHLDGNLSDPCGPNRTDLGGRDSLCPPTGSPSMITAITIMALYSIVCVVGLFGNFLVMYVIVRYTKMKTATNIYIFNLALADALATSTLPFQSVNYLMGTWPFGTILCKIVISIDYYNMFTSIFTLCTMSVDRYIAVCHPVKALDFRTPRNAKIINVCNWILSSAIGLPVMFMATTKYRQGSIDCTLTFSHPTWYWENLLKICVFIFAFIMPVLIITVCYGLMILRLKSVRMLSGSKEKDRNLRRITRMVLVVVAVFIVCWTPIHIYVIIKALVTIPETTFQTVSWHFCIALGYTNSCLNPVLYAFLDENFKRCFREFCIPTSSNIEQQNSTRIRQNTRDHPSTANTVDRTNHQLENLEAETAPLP

[5] = tested on: male (CD1) mice; experiment: Respiratory depression, whole body plethysmography with CO2 challenge; conditions: equianalgesic doses (100 mg/kg vs oxycodone 30 mg/kg, gavage)
Procedure: The animals were housed in SPF conditions. The animal housing facilities were maintained at 72°+/−2° F. with a light cycle of 12:12 hours (light:dark). Autoclaved rodent chow and water are provided ad libitum.
Approximate measurements of minute ventilation were carried out using Buxco unrestrained whole body plethysmographs (WBP). Digital computer aided analysis of the analog signal was used to report measurements of tidal volume, frequency of breathing, minute ventilation, inspiratory and expiratory times and flows as well as other derived measurements.
To more clearly delineate the effect of these test articles on respiratory depression, a hypercapnic ventilatory stimulus (CO2) was added to the animals' breathing air supply to stimulate ventilation.
Mice received the drug by gavage and then were placed in the WBP. […] The mouse remained in that atmosphere for 10 minutes, after which time the chamber was flushed with zero grade air for another 20 min to allow ventilation to return to baseline. The mouse was challenged again with 8% CO2 for 10 minutes. […] The last 2 minutes of each of the two conditions (Air or 8% CO2) was recorded and analyzed for the following respiratory parameters: minute ventilation, respiratory frequency, tidal volume, and time of inspiration/expiration for animals in each dose group.

COCCOCCOCCOCCOCCOCCOC1CCC2(O)C3Cc4ccc(OC)c5c4C2(CCN3C)C1O5 (stereo not drawn) [α-6-mPEG6-O-hydroxycodone, α-6-mPEG6-O-oxycodone]
oral dose at which maximal analgesia was obtained [1]: 100 mg/kg | Loss Pinna, fold difference relative to parent compound ([2]; PO, 1/2 responding): >> | Muscle Rigidity, fold difference relative to parent compound ([2]; PO, 1/2 responding): >100 fold | Straub Tail, fold difference relative to parent compound ([2]; PO, 1/2 responding): 100 fold | Loss Pinna, fold difference relative to parent compound ([2]; PO, 2/2 responding): >> | Muscle Rigidity, fold difference relative to parent compound ([2]; PO, 2/2 responding): >30 fold | Straub Tail, fold difference relative to parent compound ([2]; PO, 2/2 responding): >100 fold | Loss Pinna, fold difference relative to parent compound ([2]; SC, 1/2 responding): >30 fold | Muscle Rigidity, fold difference relative to parent compound ([2]; SC, 1/2 responding): 100 fold | Straub Tail, fold difference relative to parent compound ([2]; SC, 1/2 responding): 100 fold | Loss Pinna, fold difference relative to parent compound ([2]; SC, 2/2 responding): 33 fold | Muscle Rigidity, fold difference relative to parent compound ([2]; SC, 2/2 responding): 100 fold | Straub Tail, fold difference (reduction in CNS activity) relative to parent compound ([2]; SC, 2/2 responding): 100 fold | decrease in CNS activity relative to parent opioid ([2]; male, CD-1, mouse, in vivo, oral): 10-100 fold | mice showing the straub tail response ([2]; oral doses up to 100 mg/kg): none | Loss Pinna, number of animals responding (N=2) ([2]; oral, 1 mg/kg): 0 | Muscle Rigidity, number of animals responding (N=2) ([2]; oral, 1 mg/kg): 0 | Straub Tail Effect, number of animals responding (N=2) ([2]; oral, 1 mg/kg): 0 | Loss Pinna, number of animals responding (N=2) ([2]; oral, 3 mg/kg): 0 | Muscle Rigidity, number of animals responding (N=2) ([2]; oral, 3 mg/kg): 0 | Straub Tail Effect, number of animals responding (N=2) ([2]; oral, 3 mg/kg): 0 | Loss Pinna, number of animals responding (N=2) ([2]; oral, 10 mg/kg): 0 | Muscle Rigidity, number of animals responding (N=2) ([2]; oral, 10 mg/kg): 0 | Straub Tail Effect, number of animals responding (N=2) ([2]; oral, 10 mg/kg): 0 | Loss Pinna, number of animals responding (N=2) ([2]; oral, 30 mg/kg): 0 | Muscle Rigidity, number of animals responding (N=2) ([2]; oral, 30 mg/kg): 0 | Straub Tail Effect, number of animals responding (N=2) ([2]; oral, 30 mg/kg): 0 | Loss Pinna, number of animals responding (N=2) ([2]; oral, 100 mg/kg): 0 | Muscle Rigidity, number of animals responding (N=2) ([2]; oral, 100 mg/kg): 1 | Straub Tail Effect, number of animals responding (N=2) ([2]; oral, 100 mg/kg): 0 | Loss Pinna, number of animals responding (N=2) ([2]; oral, 300 mg/kg): 0 | Muscle Rigidity, number of animals responding (N=2) ([2]; oral, 300 mg/kg): 1 | Straub Tail Effect, number of animals responding (N=2) ([2]; oral, 300 mg/kg): 1 | lowest dose causing a detectable response in the straub test ([2]; oral, highest dose tested): 300 mg/kg | injection lever responses (% ILR) ([3]; 0.03 mg/kg/injection): only food lever responses | injection lever responses (% ILR) ([3]; 1 mg/kg/injection): 39% | subjects showing addictive behavior ([3]; 1 mg/kg/injection): 25% | injection lever responses (% ILR) ([3]; 1 mg/kg/injection, listed as α-mPEG-6-O-hydroxycodone): 38±24% | subjects showing addictive behavior ([3]; 3 mg/kg/injection): 50% | Ki [4]: 1900 nM | respiratory depression compared to oxycodone ([5]; listed as PEG-6-O-hydroxycodone): produces less respiratory depression than oxycodone | respiratory depression compared to oxycodone ([5]; listed as mPEG6-O-hydroxycodone): less respiratory depression
